For assay [1], the system named is bilateral fibrinous pleuritis. Description: Bilateral fibrinous pleuritis in a breeding mare (Examples 4 and 24). The class given is in vivo, horse (mare). Here is the method: A valuable breeding mare, treated for a respiratory infection developed bilateral fibrinous pleuritis, easily heard with auscultation of the chest. After six weeks therapy with a combination of conventional antibiotics and anti-inflammatory drugs, there was little if any improvement. Conventional therapy was terminated. Methylsulfonylmethane was added to the diet of this refractory case (24 g, twice daily, over a period of 5 days). This was the only special treatment given. […] Auscultation of the chest was negative.

The next assay deals with epiphysitis. The following applies: oral; cited from earlier work.
In assay [2] the test system is pain in the mid-back region. Put plainly: Acute pain, comparison with codeine, urinary calculi, subject three (Example 32). The class given is in vivo, human. As to conditions: 1.5 g in warm water, oral. Here is the method: Methylsulfonylmethane was compared with codeine for the control of pain in subject three, a person who awakened in the early morning with excruciating pain in the mid-back region, so intense it was difficult to pin-point a specific region. […] Analgesic requirements were 1/2 grain codeine with aspirin every two hours. […] The intense pain returned. The subject was given 1.5 g of methylsulfonylmethane dissolved in 1/2 glass of warm water. At 0.5 hours after taking the methylsulfonylmethane, the pain had essentially disappeared. Methylsulfonylmethane (1.5 g/day) was continued until the afternoon of the third day, when X-ray confirmed that the calculi yet obstructed the ureter. Subject was switched again to codeine with aspirin (1/2 grain×2 hours). […] Methylsulfonylmethane was again administered (1.5 g×4 hours). On day 5 the calculi passed. Recovery was uneventful, requiring neither codeine, methylsulfonylmethane,nor a urinary tract antimicrobial.

In a further assay the test system is anticholinesterases. The following applies: in vivo; cited from earlier work.
In assay [3] the test system is myositis ossificans generalis. Put plainly: Myositis ossificans generalis (Example 35). The class given is in vivo, human. As to conditions: one teaspoon orally in split daily doses, nearly two years. From the text:
Their family belongs to a group of families each with a family member suffering from the disease. They have been on one teaspoon of methylsulfonylmethane orally, in split daily doses for nearly two years. […] No other child in the group is on methylsulfonylmethane and all are deteriorating physically. The disease cause is unknown but probably is a genetic/autoimmune type of disorder.

For assay [4], the system named is scarification of the right cheek pouch. Put plainly: Wound healing of the cheek pouch in hamsters (Example 17). Format: in vivo. As to conditions: 0.1 gm/kg methylsulfonylmethane alone or 100 mg ascorbic acid alone in feed; controls day 4 and 5. The protocol: Four sets of 5 hamsters were subject to scarification of the right cheek pouch, using standard methodology. One week prior to pouch injury, one set was started on a daily regimen of 0.1 gm/kg of methylsulfonylmethane in the diet of standard hamster feed, a second group was given 0.1 gm/kg of methylsulfonylmethane plus 100 mg of ascorbic acid in the same feed, a third group was given only 100 mg of ascorbic acid in the same feed, and the last group, fed only the feed, was held as control. Daily post-scarification examination was made to determine the rate of injury repair.

For a further assay, the system named is mammary tumors. As to conditions: abdominal DMBA; in drinking water; tumors in control animals; cited from earlier work.
Assay [5] deals with Trichomonas vaginalis. Put plainly: In vitro culture of Trichomonas vaginalis (Example 28(a)). Format: cell-based, Trichomonas vaginalis Strain ATCC No. 30001. Here is the method:
Methylsulfonylmethane has highly variable toxicities for various nematodes. Based on this discovery, tests were conducted on several parasites adverse to the health of vertebrates
Strain ATCC No. 30001 was cultured in vitro employing diamonds tym medium. Methylsulfonylmethane was added thereto at levels varying from 5.5 to 109.3 mg/ml. At concentrations of 5.5 to 10.9 mg/ml, the methylsulfonylmethane had no effect on this protozoan.

For the next assay, the system named is mammary carcinoma. Description: Resistance to DMBA-induced mammary carcinoma (Example 36). Format: in vivo, female rats. As to conditions: 2% by wt. in diet; Group 3; Group 2 (DMBA only) had cancers. Here is the method:
Forty-five female rats were stabilized to the laboratory and then divided into 3 groups of 15 each. Group 1 was designated control, Groups 2 and 3 were treated by topical application to the hair-free abdomen with a solution of the carcinogen dimethyl-benzanthracene (DMBA). All three groups were each fed a standard laboratory diet with water, ad lib. Group 3 also received in […] their standard diet 2% by wt. of methylsulfonylmethane.

The test system of assay [6] is t-lymphocyte dependent and t-lymphocyte independent immune responses. Description: Humoral immune responses in mice (Example 37). Format: in vivo, balb/c strain mice. As to conditions: 3% by wt. in water. Here is the method:
Laboratory mice genetically predisposed to lymphoma development were selected for this test. Humoral immunity participation was measured as was the effect of methylsulfonylmethane on an animal's life span. One set of 12 mice were maintained as controls. The treated (T) group received identical treatment except for their water given ad lib, which contained 3% by wt. of methylsulfonylmethane in solution.
By month 4 of this test, all controls were dead, due to lymphoma development. […] These normal balb/c strain mice of group T were tested for t-lymphocyte dependent (t-d) and t-lymphocyte independent (t-i) immune responses. […] Based on these preliminary results, at high enough daily rates of ingestion, methylsulfonylmethane stimulates humoral immunity thereby providing protection to otherwise lethal spontaneous mouse lymphomas.

The next assay has as its system platelet count. Put plainly: Low platelet count in lupus erythematosus (Example 22). Format: in vivo, human. As to conditions: 1.5 gm/day in 3 doses, 2-year period. The text has this:
Methylsulfonylmethane administered orally raised the platelet count of an adult with lupus erythematosus from 84,000 (after prednisone therapy) to 200,000 over a 2-year period (1.5 gm/day in 3 doses).

Assay [7] has as its system Trichomonas vaginalis. Put plainly: Treatment of Trichomonas vaginalis infection in subjects (Example 28(a)). The class given is in vivo, human. The text has this: Both had prior courses of therapy for this disorder without adequate response. […]
One subject was later reinfected by their sexual partner but the reinfection was cleared employing a daily douche of 5% aqueous methylsulfonylmethane for one week.

[8] abbreviates: 24 g twice daily, 5 days (Example 4).

Structures are written as SMILES.

Turning to `CS(C)(=O)=O` [methylsulfonylmethane], the response of pleuritis result in [1] (2×12 gm/day in diet, five days (Example 24)) is listed as “responded favorably (normal breathing, negative ausculation of the chest)”. In [1] (setting [8]), the “auscultation of the chest” value is “negative”, the “breathing at fifth day” value is reported as “returned to normal” and the “pain at fifth day” value is listed as “no longer demonstrated pain”. Also, in [1] (followed two years after treatment (Example 4)), the “state over the next two years” value was “normal and healthy”. For the same compound, in the assay with epiphysitis, the correction of epiphysitis entry is reported as “rapidly corrected”. Moreover, the “time after which the pain had essentially disappeared” value in [2] was 0.5 h. Further, in the assay with anticholinesterases, the “lethal effects of anticholinesterases such as paraoxon, tetraethyl pyrophosphate and octamethyl pyrophosphoramide” value is “antagonizes”. Also, the “condition of the patient” value in [3] was “out of their wheelchair and is improving”. For the same compound, the disease process entry in assay [3] (child A. Z.) is reported as “stopped”. The “day on which the 36-hour combination healing result was matched” value in [4] is on record as “three”. For the same compound, the development of tumors entry in the assay with mammary tumors is “did not develop tumors”. In addition, the lethal concentrations in the assay with Trichomonas vaginalis [5] (all higher concentrations tested, to 109.3 mg/ml) is above 21.9 mg/mL. The “activity relative to metronidazole HCL” value with Trichomonas vaginalis [5] (in vitro, based on this assay) was “about half”. The “concentration with no effect on this protozoan” value with Trichomonas vaginalis [5] (in vitro, diamonds tym medium) lay in the range of 5.5 to 10.9 mg/mL. The “mammary carcinoma at 5 months post DMBA” value in the assay with mammary carcinoma is “free of mammary carcinoma”. In assay [6], the “primary IgM and secondary IgG responses to sheep erythrocytes (SRBC)” value is given as “significantly enhancement”; the tnp-ficoll response result is “significant suppression”. For the same compound, the platelet count with platelet count is listed as 200,000. In the assay on Trichomonas vaginalis [7] (500 mg twice daily, two weeks), the “outcome in subject's partner” value is recorded as “successfully treated”. Besides, the reinfection entry in the assay with Trichomonas vaginalis [7] (daily douche of 5% aqueous, one week) was “cleared”.

Values taken from patent US4863748A, “Dietary products and uses comprising methylsulfonylmethane” (priority 1986, dated 1989).
